Experimental data published in US10258603B2 (priority 2014, dated 2019).

biological target: T1, CECR2 (Homo sapiens, UniProt Q9BXF3); test: CECR2 TR-FRET Binding Assay; conditions: IC50 (uM)
T1 construct: 424-538 was cloned, expressed, and purified to homogeneity; Flag; made in house
Text: IC50 Measurements for Inhibitors Using CECR2 TR-FRET Binding Assay

T1 sequence (Q9BXF3 424-538 limits assumed): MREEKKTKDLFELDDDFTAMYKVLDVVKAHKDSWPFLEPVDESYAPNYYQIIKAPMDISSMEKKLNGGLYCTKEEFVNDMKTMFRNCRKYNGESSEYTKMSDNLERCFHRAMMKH

Structure (SMILES) | IC50 [µM]
C=CCn1cc(C(=O)N(C)C2CCN(c3cc(OC)ncn3)CC2)c2cc[nH]c2c1=O [Example 162, 6-allyl-N-[1-(6-methoxypyrimidin-4-yl)-4-piperidyl]-N-methyl-7-oxo-1H-pyrrolo[2,3-c]pyridine-4-carboxamide] | 0.12
C=CCn1cc(C(=O)N(C)C2CCN(c3cc(C(F)(F)F)ncn3)CC2)c2cc[nH]c2c1=O [Example 164, 6-allyl-N-methyl-7-oxo-N-[1-[6-(trifluoromethyl)pyrimidin-4-yl]-4-piperidyl]-1H-pyrrolo[2,3-c]pyridine-4-carboxamide] | 0.21
C=CCn1cc(C(=O)N(C)C2CCN(c3cc(C)nc(C)n3)CC2)c2cc[nH]c2c1=O [Example 165, 6-allyl-N-[1-(2,6-dimethylpyrimidin-4-yl)-4-piperidyl]-N-methyl-7-oxo-1H-pyrrolo[2,3-c]pyridine-4-carboxamide] | 0.087
C=CCn1cc(C(=O)N(C)C2CCN(c3cc(-n4cccn4)ncn3)CC2)c2cc[nH]c2c1=O [Example 170, 6-allyl-N-methyl-7-oxo-N-[1-(6-pyrazol-1-ylpyrimidin-4-yl)-4-piperidyl]-1H-pyrrolo[2,3-c]pyridine-4-carboxamide] | 0.042
CC(c1ccccc1)N1CCC(N(C)C(=O)c2cn(C)c(=O)c3[nH]ccc23)CC1 (stereo not drawn) [Example 214] | 0.66

same assay, conditions: read-out: IC50

Structure (SMILES) | IC50 [µM]
CN(C(=O)c1cn(C)c(=O)c2[nH]ccc12)C1CCN(c2cnccn2)CC1 [Example 143, N,6-dimethyl-7-oxo-N-(1-pyrazin-2-yl-4-piperidyl)-1H-pyrrolo[2,3-c]pyridine-4-carboxamide] | 0.4
Cc1ccnc(N2CCC(N(C)C(=O)c3cn(C)c(=O)c4[nH]ccc34)CC2)n1 [Example 144, N,6-dimethyl-N-[1-(4-methylpyrimidin-2-yl)-4-piperidyl]-7-oxo-1H-pyrrolo[2,3-c]pyridine-4-carboxamide] | 0.43
CN(C(=O)c1cn(C)c(=O)c2[nH]ccc12)C1CCN(c2cccnn2)CC1 [Example 145, N,6-dimethyl-7-oxo-N-(1-pyridazin-3-yl-4-piperidyl)-1H-pyrrolo[2,3-c]pyridine-4-carboxamide] | 0.41
CN(C(=O)c1cn(C)c(=O)c2[nH]ccc12)C1CCN(c2ncc(F)cn2)CC1 [Example 147, N-[1-(5-fluoropyrimidin-2-yl)-4-piperidyl]-N,6-dimethyl-7-oxo-1H-pyrrolo[2,3-c]pyridine-4-carboxamide] | 0.51
CN(CC1CCN(c2ccncn2)CC1)C(=O)c1cn(C)c(=O)c2[nH]ccc12 [Example 158, N,6-dimethyl-7-oxo-N-[(1-pyrimidin-4-yl-4-piperidyl)methyl]-1H-pyrrolo[2,3-c]pyridine-4-carboxamide] | 0.79
C=CCn1cc(C(=O)N(C)C2CCN(c3ccnc(C#N)n3)CC2)c2cc[nH]c2c1=O [Example 160, 6-allyl-N-[1-(2-cyanopyrimidin-4-yl)-4-piperidyl]-N-methyl-7-oxo-1H-pyrrolo[2,3-c]pyridine-4-carboxamide] | 0.18
C=CCn1cc(C(=O)N(C)C2CCN(c3ncnc4c3CCC4)CC2)c2cc[nH]c2c1=O [Example 163, 6-allyl-N-[1-(6,7-dihydro-5H-cyclopenta[d]pyrimidin-4-yl)-4-piperidyl]-N-methyl-7-oxo-1H-pyrrolo[2,3-c]pyridine-4-carboxamide] | 0.091
C=CCn1cc(C(=O)N(C)C2CCN(c3cc(C(C)C)ncn3)CC2)c2cc[nH]c2c1=O [Example 167, 6-allyl-N-[1-(6-isopropylpyrimidin-4-yl)-4-piperidyl]-N-methyl-7-oxo-1H-pyrrolo[2,3-c]pyridine-4-carboxamide] | 0.12
C=CCn1cc(C(=O)N(C)C2CCN(c3cc(C)nc(C4CC4)n3)CC2)c2cc[nH]c2c1=O [Example 168, 6-allyl-N-[1-(2-cyclopropyl-6-methyl-pyrimidin-4-yl)-4-piperidyl]-N-methyl-7-oxo-1H-pyrrolo[2,3-c]pyridine-4-carboxamide] | 0.042
C=CCn1cc(C(=O)N(C)C2CCN(c3cncc(-n4cccn4)n3)CC2)c2cc[nH]c2c1=O [Example 169, 6-allyl-N-methyl-7-oxo-N-[1-(6-pyrazol-1-ylpyrazin-2-yl)-4-piperidyl]-1H-pyrrolo[2,3-c]pyridine-4-carboxamide] | 0.023
CN(C(=O)c1cn(C)c(=O)c2[nH]ccc12)C1CCN(c2ccccc2)CC1 [Example 172, N,6-dimethyl-7-oxo-N-(1-phenyl-4-piperidyl)-1H-pyrrolo[2,3-c]pyridine-4-carboxamide] | 1
Cc1cccc(N2CCC(N(C)C(=O)c3cn(C)c(=O)c4[nH]ccc34)CC2)c1 [Example 173, N,6-dimethyl-N-[1-(m-tolyl)-4-piperidyl]-7-oxo-1H-pyrrolo[2,3-c]pyridine-4-carboxamide] | 0.99
CN(C(=O)c1cn(C)c(=O)c2[nH]ccc12)C1CCN(c2cccc(C(F)(F)F)c2)CC1 [Example 174, N,6-dimethyl-7-oxo-N-[1-[3-(trifluoromethyl)phenyl]-4-piperidyl]-1H-pyrrolo[2,3-c]pyridine-4-carboxamide] | 0.59
CN(C(=O)c1cn(C)c(=O)c2[nH]ccc12)C1CCN(c2ccc(C(F)(F)F)cc2)CC1 [Example 175, N,6-dimethyl-7-oxo-N-[1-[4-(trifluoromethyl)phenyl]-4-piperidyl]-1H-pyrrolo[2,3-c]pyridine-4-carboxamide] | 0.76
Cc1ccc(N2CCC(N(C)C(=O)c3cn(C)c(=O)c4[nH]ccc34)CC2)cc1 [Example 176, N,6-dimethyl-7-oxo-N-[1-(p-tolyl)-4-piperidyl]-1H-pyrrolo[2,3-c]pyridine-4-carboxamide] | 0.93
CCc1cccc(N2CCC(N(C)C(=O)c3cn(C)c(=O)c4[nH]ccc34)CC2)c1 [Example 177, N-[1-(3-ethylphenyl)-4-piperidyl]-N,6-dimethyl-7-oxo-1H-pyrrolo[2,3-c]pyridine-4-carboxamide] | 0.69
CCc1ccc(N2CCC(N(C)C(=O)c3cn(C)c(=O)c4[nH]ccc34)CC2)cc1 [Example 178, N-[1-(4-ethylphenyl)-4-piperidyl]-N,6-dimethyl-7-oxo-1H-pyrrolo[2,3-c]pyridine-4-carboxamide] | 0.74
CN1CCC(CCN(C)C(=O)c2cn(C)c(=O)c3[nH]ccc23)CC1 [Example 181, N,6-dimethyl-N-[2-(1-methyl-4-piperidyl)ethyl]-7-oxo-1H-pyrrolo[2,3-c]pyridine-4-carboxamide] | 0.73
CCN1CCC(CCN(C)C(=O)c2cn(C)c(=O)c3[nH]ccc23)CC1 [Example 182] | 0.41
CC(C)N1CCC(CCN(C)C(=O)c2cn(C)c(=O)c3[nH]ccc23)CC1 [Example 183] | 0.49
CN(CCC1CCN(C2CCC2)CC1)C(=O)c1cn(C)c(=O)c2[nH]ccc12 [Example 184] | 0.47
COCCN1CCC(CCN(C)C(=O)c2cn(C)c(=O)c3[nH]ccc23)CC1 [Example 185] | 0.91

Structure (SMILES) | IC50 [µM]
CN(CC1CCN(CC2CCCC2)CC1)C(=O)c1cn(C)c(=O)c2[nH]ccc12 [Example 187, N-[[1-(cyclopentylmethyl)-4-piperidyl]methyl]-N,6-dimethyl-7-oxo-1H-pyrrolo[2,3-c]pyridine-4-carboxamide] | 0.79
CN1CCC(CN(C)C(=O)c2cn(C)c(=O)c3[nH]ccc23)CC1 [Example 188] | 2
CN(CC1CCN(C2CCC2)CC1)C(=O)c1cn(C)c(=O)c2[nH]ccc12 [Example 189] | 1
CCN1CCC(CN(C)C(=O)c2cn(C)c(=O)c3[nH]ccc23)CC1 [Example 191] | 0.59
CN(CC1CCN(C2CC2)CC1)C(=O)c1cn(C)c(=O)c2[nH]ccc12 [Example 192] | 1.4
CC(c1ccccc1)N1CCC(CN(C)C(=O)c2cn(C)c(=O)c3[nH]ccc23)CC1 (stereo not drawn) [Example 197] | 0.73
CN(CC1CCN(Cc2ccccc2F)CC1)C(=O)c1cn(C)c(=O)c2[nH]ccc12 [Example 201] | 0.99
CN(CC1CCN(Cc2cccc(F)c2)CC1)C(=O)c1cn(C)c(=O)c2[nH]ccc12 [Example 202] | 1.3
CN(CC1CCN(Cc2ccc(F)cc2)CC1)C(=O)c1cn(C)c(=O)c2[nH]ccc12 [Example 203] | 1.1
Cc1cccc(CN2CCC(CN(C)C(=O)c3cn(C)c(=O)c4[nH]ccc34)CC2)c1 [Example 204] | 1.1
CN(CC1CCN(C2CCCC2)CC1)C(=O)c1cn(C)c(=O)c2[nH]ccc12 [Example 205] | 0.71
CN(CC1CCN(CC2CCCCC2)CC1)C(=O)c1cn(C)c(=O)c2[nH]ccc12 [Example 206] | 0.37
CC(C)CN1CCC(N(C)C(=O)c2cn(C)c(=O)c3[nH]ccc23)CC1 [Example 207, N-(1-isobutyl-4-piperidyl)-N,6-dimethyl-7-oxo-1H-pyrrolo[2,3-c]pyridine-4-carboxamide] | 0.81
CN(C(=O)c1cn(C)c(=O)c2[nH]ccc12)C1CCN(CC2CC2)CC1 [Example 208] | 1.2
CN1CCC(C)(CNC(=O)c2cn(C)c(=O)c3[nH]ccc23)CC1 [Example 211, N-[(1,4-dimethyl-4-piperidyl)methyl]-6-methyl-7-oxo-1H-pyrrolo[2,3-c]pyridine-4-carboxamide] | 2.2
CC(C)N1CCC(C)(CNC(=O)c2cn(C)c(=O)c3[nH]ccc23)CC1 [Example 212, N-[(1-isopropyl-4-methyl-4-piperidyl)methyl]-6-methyl-7-oxo-1H-pyrrolo[2,3-c]pyridine-4-carboxamide] | 1.7
CN(C(=O)c1cn(C)c(=O)c2[nH]ccc12)C1CCN(Cc2ccc(C#N)cc2)CC1 [Example 213, N-[1-[(4-cyanophenyl)methyl]-4-piperidyl]-N,6-dimethyl-7-oxo-1H-pyrrolo[2,3-c]pyridine-4-carboxamide] | 0.71
CN(C(=O)c1cn(C)c(=O)c2[nH]ccc12)C1CCN(Cc2ccccc2F)CC1 [Example 216] | 1.2
Cc1ccc(CN2CCC(N(C)C(=O)c3cn(C)c(=O)c4[nH]ccc34)CC2)cc1 [Example 218] | 0.77
CN(C(=O)c1cn(C)c(=O)c2[nH]ccc12)C1CCN(Cc2cccc(C#N)c2)CC1 [Example 220] | 1.1
COc1ccc(CN2CCC(N(C)C(=O)c3cn(C)c(=O)c4[nH]ccc34)CC2)cc1 [Example 221] | 0.67
